According to patent publication US20260152480A1, “POLYCYCLIC COMPOUND AND USE THEREOF” (TYK MEDICINES , INC., priority 2022, published 2026):
Where two headings read alike, the source gives them in different places.

Legend:
[1] = tested on: YAP-TEAD; assay: Nano luciferase method to detect YAP-TEAD inhibitor activity (293T cells transfected with pGL3B-8×GTiiC-nLuc-CMV-fLuc); format: cell-based; conditions: Homo sapiens, HEK-293T, transfected 293T cells, 48 hours incubation, read-out: Nano Luciferas detection (IC50)
Excerpt: Experimental Example 2 Nano Luciferase Method to Detect YAP-TEAD Inhibitor Activity
(1) Experimental materials and equipment: 293T cells were purchased from Nanjing Cobioer Biosciences CO., LTD. DMEM medium (high sugar, phenol red free, Bio-Channel), DMSO (dimethyl sulfoxide), Lipo6000™ transfection reagent (Beyotime), pGL3B-8×GTiiC-nLuc-CMV-fLuc plasmid, 0.25% EDTA Tripsin (trypsin solution), 1×PBS (phosphate buffer, PH7.2), 96-well white cell culture plate (PerkinElmer), Fetal Bovine Serum (FBS), 10,000 U/mL penicillin-G/streptomycin, High-speed cryo-centrifuge (EPPENDORF 5810R), 37° C. CO^2 incubator, Vi-Cell® cell counter, Envision microplate reader (PerkinElmer).
Resuscitated 293T cells were inoculated into 10 cm petri dishes and placed in a 5% CO^2 incubator at a constant temperature of 37° C. To ensure transfection efficiency, cells in the logarithmic phase (cell density of about 50%-70%) should be used.
One day before transfection, cells in logarithmic phase were digested with Trypsin-EDTA, the reaction was terminated by adding medium, and the cell suspension was made by blowing and mixing with a pipette.
The cell concentration was determined using Vi-cell and diluted to a suspension of 5*10^5 cells per milliliter. Once the cell suspension was prepared, it was gently mixed and 10 ml of liquid was added to a 10 cm petri dish. […] The cells were incubated in a 5% CO^2 incubator at 37° C. for 1 day.
Take two clean and sterile centrifuge tubes, added 750 μL of opti-MEM Medium without antibiotics and serum respectively, then added […] of plasmid (pGL3B-8×GTiiC-nLuc-CMV-fLuc) to one of the tubes and gently blown with a pipette for mixing; the other tube was added with Lipo6000 transfection reagent and gently blown with a pipette for mixing. After standing at room temperature for 5 minutes, the culture medium containing DNA was gently added to the culture medium containing Lipo6000 transfection reagent, mixed by gently inverting the centrifuge tube, and stood at room temperature for 5 minutes.
The above mixture was added evenly dropwise to a 10-cm petri dish and replaced with fresh complete medium after 6 h of incubation.
After 1 day of transfection, Trypsin EDTA was used to digest the cells, medium was added to terminate the reaction, and a cell suspension was made by blowing and mixing with a pipette.
Cell concentration was determined using Vi-cell, and diluted to a suspension of 20,000 cells per milliliter.
After the cell suspension was prepared, it was gently mixed and 100 μL was added to each well in a 96-well plate so that the density of cells to be measured was 2000 per well.
The inoculated cell culture plates were incubated in an incubator, and the compounds in concentration gradients were added after about 24 hours.
The 10 mM compound reservoir solution was diluted to 50 μM with culture medium, and 50 μM compound solution was added sequentially to the third column of the deep-well plate, and 216 μL of culture medium containing 0.5% DMSO to the fourth to eleventh columns.
Gradient dilution: 100 μL of solution was pipetted from the third column and added to the fourth column, after mixing; another 100 μL of solution was pipetted from the fourth column and added to the fifth column, and the operation was repeated until the eleventh column.
Using a multichannel pipette, 25 μL of compound solution was pipetted from the deep-well plate and added to the 96-well culture plate, and each compound was repeated four times on the 96-well plate. A concentration gradient with a maximum concentration of 10,000 nM, 1:3.16, was eventually formed on the 96-well plate.
The 96-well plate was incubated in a 5% CO^2 incubator at a constant temperature of 37° C. for 48 hours, then removed and equilibrated at room temperature for 10 minutes.
100 μL of detection reagent was added to each well and placed on a horizontal shaker at low speed for 10 minutes to fully lyse the cells. […]

[2] = tested on: Human pleural mesothelioma cells NCI-H226; assay: Proliferation inhibition assay of human pleural mesothelioma cells NCI-H226 (CCK8); format: cell-based; conditions: 72 h, 3 days incubation
Excerpt: Experimental Example 1 Cell Anti-Proliferation Test
Proliferation Inhibition Assay of Human Pleural Mesothelioma Cells NCI-H226 by YAP-TEAD Inhibitor Compounds
Experimental materials and equipment: Human pleural mesothelioma cells NCI-H226 were purchased from Nanjing Cobioer Biosciences CO., LTD. RPMI-1640 medium (Bio-Channel), DMSO (dimethyl sulfoxide), CCK8 (WST-8) cell analysis kit (Beyotime), 0.25% EDTA-Tripsin (trypsin solution), 1×PBS (phosphate buffer, PH7.2), 96-well plate (Corning), fetal bovine serum (FBS), 10,000 U/mL penicillin-G/streptomycin, high-speed cryo-centrifuge (EPPENDORF 5810R), enzyme-linked immunoassay (Tecan Spark).
• A) Tumor cells were cultured in RPMI-1640 (containing 10% FBS and 100 U/mL penicillin-G/streptomycin) at 37° C., 5% CO^2 and saturated humidity until 80-90% density. • B) Removed the culture medium from 10 cm Petri dishes; • C) Rinsed the cells once with 10 ml 1×PBS; • D) Added 4 ml 0.25% EDTA-Tripsin into 37° C., 5% CO^2 incubator for trypsin digestion for 5 minutes, transferred to 15 ml centrifuge tube, centrifuged at 200 g for 5 minutes, discarded the supernatant to get cell precipitate; • E) Resuspend with 4 ml DMEM medium, count and adjust to 10,000 cells/ml. • F) Added cell suspension to 96-well plate with 100 μL per well volume and incubate overnight at 37° C., 5% CO^2 incubator.
• A) Preparation of gradient dilution solution of tested compounds: the test compounds were configured into 1 mM reservoir solution. Then 1.5 μl of the reservoir solution was dissolved in 1.5 ml of DMSO-free culture solution, and then a 3-fold serial gradient dilution was performed with 0.1% DMSO culture solution for a total of 9 concentrations, and the concentrations of the compounds after dilution were as follows: • 333.33 nM, 111.11 nM, 37.03 nM, 12.35 nM, 4.15 nM, 1.37 nM, 0.46 nM, 0.15 nM • B) After thorough mixing, 100 μL of culture compound solution was taken separately to replace the culture solution in the cell culture plate, with 4 replicate wells for each concentration; • C) The cells were transferred to the incubator and incubated for 3 days.
• A) Removed the cell culture plate and added 10 μl of CCK-8 (WST-8) solution per well in the biosafety cabinet. • B) Placed the cell culture plate back into the incubator and continued incubation for 3 hours. • C) Determined the absorbance value by selecting 450 nm on a TECAN enzyme-linked immunoassay detector.
The cell viability (% Cell Viability) was calculated using the following formula.
[formula] • A (dosing): absorbance of wells with cells, CCK8 solution and drug solution • A (blank): absorbance of wells with medium and CCK8 solution but no cells • A (0 dosing): absorbance of wells with cells, CCK8 solution and no drug solution • Cell viability: Cell proliferation viability or cytotoxicity viability IC50 values were obtained by curve fitting with GraphPad Prism 8 software.

[3] = reference compounds of WO2009081259A1

## C=CC(=O)N1CCC(c2cccnc2N(C)c2ccc(C(F)(F)F)cc2)CC1 [Compound T63]
[1]
  IC50: 100 to 1000 nM
[2]
  IC50: 100 to 1000 nM

## C=CC(=O)N1CCC(c2cc(-c3ccnn3C)cnc2Nc2ccc(C(F)(F)F)cc2)CC1 [Compound T60]
[1]
  IC50: 100 to 1000 nM
[2]
  IC50: 1000 to 5000 nM

## C=CC(=O)N1CCC(c2cc3ccccc3nc2Nc2ccc(C(F)(F)F)cc2)CC1 [Compound T65]
[1]
  IC50: 100 to 1000 nM
[2]
  IC50: 100 to 1000 nM

## FC(F)(F)c1ccc(Nc2ncccc2C2CCNCC2)cc1 [Reference compound 3, reference compound]
[1]; [3]
  IC50: > 5000 nM
[2]; [3]
  IC50: > 5000 nM

## CC/C=C/C(=O)N1CCC(c2cccnc2Nc2ccc(C(F)(F)F)cc2)CC1 [Compound T52]
[1]
  IC50: 100 to 1000 nM
[2]
  IC50: 1000 to 5000 nM

## C/C=C/C(=O)N1CCC(c2cccnc2Nc2ccc(C(F)(F)F)cc2)CC1 [Compound T53]
[1]
  IC50: 100 to 1000 nM
[2]
  IC50: 1000 to 5000 nM

## C=CC(=O)N1CCC(c2cc(-c3cccnc3)cnc2Nc2ccc(C(F)(F)F)cc2)CC1 [Compound T96]
[1]
  IC50: 100 to 1000 nM
[2]
  IC50: 1000 to 5000 nM

## C=CC(=O)N1CCC(c2cc(-c3ccccn3)cnc2Nc2ccc(C(F)(F)F)cc2)CC1 [Compound T95]
[1]
  IC50: 100 to 1000 nM
[2]
  IC50: 1000 to 5000 nM

## C=CC(=O)N1CCC(c2ccc(C(F)(F)F)nc2Nc2ccc(C(F)(F)F)cc2)CC1 [Compound T45]
[1]
  IC50: 100 to 1000 nM
[2]
  IC50: 1000 to 5000 nM

## FC(F)(F)c1ccc(Oc2ncccc2C2CCNCC2)cc1 [Reference compound 6, reference compound]
[1]; [3]
  IC50: > 5000 nM
[2]; [3]
  IC50: > 5000 nM

## C=CC(=O)N1CCC(c2c(F)ccnc2Nc2ccc(C(F)(F)F)cc2)CC1 [Compound T26]
[1]
  IC50: ≤ 100 nM
[2]
  IC50: ≤ 100 nM

## C=CC(=O)N1CCC(c2cc(F)cnc2Oc2ccc(C(F)(F)F)cc2)CC1 [Compound T38]
[1]
  IC50: 100 to 1000 nM
[2]
  IC50: 100 to 1000 nM

## C#CC(=O)N1CCC(c2cccnc2Nc2ccc(C(F)(F)F)cc2)CC1 [Compound T49]
[1]
  IC50: ≤ 100 nM
[2]
  IC50: 1000 to 5000 nM

## C=CC(=O)N1CCN(c2cccnc2Nc2ccc(C(F)(F)F)cc2)CC1 [Compound T36]
[1]
  IC50: 100 to 1000 nM
[2]
  IC50: 100 to 1000 nM

## C=C(C)C(=O)N1CCC(c2cccnc2Nc2ccc(C(F)(F)F)cc2)CC1 [Compound T48]
[1]
  IC50: 1000 to 5000 nM
[2]
  IC50: 1000 to 5000 nM

## C=CC(=O)N1CCC(c2cc(-c3ccn(C)n3)cnc2Nc2ccc(C(F)(F)F)cc2)CC1 [Compound T54]
[1]
  IC50: ≤ 100 nM
[2]
  IC50: 100 to 1000 nM

## C=CC(=O)N1CCC(c2nc(C(F)(F)F)cnc2Nc2ccc(C(F)(F)F)cc2)CC1 [Compound T83]
[1]
  IC50: ≤ 100 nM
[2]
  IC50: ≤ 100 nM

## C=CC(=O)N1CCC(c2cccnc2Nc2ccc(C(F)(F)F)cc2)C1 (stereo not drawn) [Compound T3]
[1]
  IC50: 100 to 1000 nM
[2]
  IC50: 100 to 1000 nM

## CC#CC(=O)N1CCC(c2cccnc2Nc2ccc(C(F)(F)F)cc2)CC1 [Compound T50]
[1]
  IC50: 1000 to 5000 nM
[2]
  IC50: 1000 to 5000 nM

## C=CC(=O)N1CCC(c2cccnc2Nc2ccc(C)cc2)CC1 [Compound T11]
[1]
  IC50: ≤ 100 nM
[2]
  IC50: ≤ 100 nM

## C=CC(=O)N1CCC(c2ccccc2Nc2ccc(C(F)(F)F)cc2)CC1 [Compound T64]
[1]
  IC50: ≤ 100 nM
[2]
  IC50: ≤ 100 nM

## C=CC(=O)N1CC=C(c2nccnc2Nc2ccc(C(F)(F)F)cc2)CC1 [Compound T17]
[1]
  IC50: ≤ 100 nM
[2]
  IC50: ≤ 100 nM

## C=CC(=O)N1CCC(c2cc(C(F)(F)F)cnc2Nc2ccc(C(F)(F)F)cc2)CC1 [Compound T47]
[1]
  IC50: 100 to 1000 nM
[2]
  IC50: 100 to 1000 nM

## C=CC(=O)N1CC=C(c2cccnc2Nc2ccc(C(F)(F)F)cc2)C1 [Compound T4]
[1]
  IC50: ≤ 100 nM
[2]
  IC50: ≤ 100 nM

## C=CC(=O)N1CC=C(c2cccnc2Nc2ccc(S(F)(F)(F)(F)F)cc2)CC1 [Compound T7]
[1]
  IC50: ≤ 100 nM
[2]
  IC50: ≤ 100 nM

## C=CC(=O)N1CCC(c2cc(F)cnc2Nc2ccc(C(F)(F)F)cc2)CC1 [Compound T25]
[1]
  IC50: ≤ 100 nM
[2]
  IC50: ≤ 100 nM

## C=CC(=O)N1CC=C(c2cccnc2Nc2ccc(C(F)(F)F)cc2)CC1 [Compound T2]
[1]
  IC50: ≤ 100 nM
[2]
  IC50: ≤ 100 nM

## C=CC(=O)N1CC(c2cccnc2Nc2ccc(C)cc2)C1 [Compound T15]
[1]
  IC50: ≤ 100 nM
[2]
  IC50: ≤ 100 nM

## C=CC(=O)N1CCC(c2cccnc2Oc2ccc(C(F)(F)F)cc2)C(F)(F)C1 (stereo not drawn) [Compound T77]
[1]
  IC50: ≤ 100 nM
[2]
  IC50: ≤ 100 nM

## C=CC(=O)N1CC(c2cccnc2Nc2ccc(C(F)(F)F)cc2)C1 [Compound T5]
[1]
  IC50: 100 to 1000 nM
[2]
  IC50: 100 to 1000 nM

## Cc1cnc(Nc2ccc(C(F)(F)F)cc2)c(C2CCNCC2)c1 [Reference compound 1, reference compound]
[1]; [3]
  IC50: > 5000 nM
[2]; [3]
  IC50: > 5000 nM

## C=CC(=O)N1CCC(c2cc(OC)cnc2Oc2ccc(C(F)(F)F)cc2)CC1 [Compound T73]
[1]
  IC50: 100 to 1000 nM
[2]
  IC50: 100 to 1000 nM

## C=CC(=O)N1CC2(C1)CN(c1nccnc1Nc1ccc(C(F)(F)F)cc1)C2 [Compound T57]
[1]
  IC50: ≤ 100 nM
[2]
  IC50: ≤ 100 nM
